This note sets out measurements from patent publication US7897846B2, “Maize event DP-098140-6 and compositions and methods for the identification and/or detection thereof” (Pioneer Hi-Bred Int'l, Inc., priority 2006, dated 2011).

Data set [1] relates to DP-098140-6 maize. It counts as in vivo, Zea mays. The note with it: 98140 maize. Here is the method:
(§1) Plants were grown in a greenhouse using a randomized complete block design containing four blocks. Each block consisted of twenty-four flats. Flats representing entries 1-12 (segregating 1:1) contained approximately fifteen plants per entry, while flats representing entries 13-24 (non-segregating) contained approximately ten plants per entry. Trait confirmation for GLYAT4621 was conducted for test and control entries at the V2 growth stage using lateral flow strip tests specific for the GLYAT protein. Plants with positive trait confirmation results (expressing GLYAT4621) were used for test entries and plants with negative trait confirmation results (not expressing GLYAT4621) were used as the control entries. Any remaining negative segregants not used for controls were then removed and remaining positive plants were thinned to 5 plants per entry within each block (treatment). At the V4 growth stage, a herbicide treatment containing glyphosate (1.46 L/ha or 20 oz/acre)+nonionic surfactant (0.25% vol./vol.)+ammonium sulfate (3.4 kg/ha) was applied to entries 1, 9, 13, and 21; herbicides containing thifensulfuron (3.5 g/ha or 0.5 oz/acre) and tribenuron (3.5 g/ha or 0.5 oz/acre) each containing nonionic surfactant (0.25% vol./vol.)+ammonium sulfate (3.4 kg/ha) were applied to entries 2, 10, 14 and 22; and a tank mixture of herbicides containing glyphosate, thifensulfuron and tribenuron was applied to entries 3, 11, 15, and 23 (Table 15).
(§2) Herbicide injury was evaluated visually at 14 and 21 days after herbicide application by estimating herbicide injury percentage, where “0” represented no visible injury and “100” represented complete plant death. The injury rating took into account all symptoms of herbicide injury when compared to the untreated entry for the same maize line. Injury symptoms included discoloration, leaf speckling, and wilting. The untreated entries for each maize line were rated as 0% injury and the herbicide treated entries of the same maize line were rated by comparing them to this untreated entry. Photographs were taken at 21 days following herbicide application to record herbicide injury. In order to further characterize tolerance to ALS-inhibiting herbicides, a characteristic of the zm-hra gene in DP-098140-6 maize, plant heights were measured for all entries at 14 and 21 days post herbicide treatment. Plant height was measured in cm from the soil surface to the tip of the highest leaf when extended by hand.
(§3) Means, standard error and P-values were calculated for plant height data. Means were calculated for herbicide injury scores. Means, ranges and standard deviations of protein expression data were calculated for each protein expressed in leaf and seed tissues.

Data set [2] deals with near isoline control maize. The class given is in vivo, Zea mays. Here is the method:
as §1, §2, §3

Data set [3] relates to DP-098140-6 maize. As to the kind of experiment: Greenhouse herbicide tolerance, visual herbicide injury rating, two generations. It counts as in vivo, Zea mays. Conditions: applied at V4. Here is the method:
(§4) The objective of this study was to evaluate the herbicide tolerance and protein expression in maize containing the event DP-098140-6.
as §1, §2, §3

Data set [4] relates to near isoline control maize. The data set is described as above. It counts as in vivo, Zea mays. The note with it: for Average Herbicide Injury Rating: Control maize, 0-100 scale, applied at V4. The method, then:
as §4, §1, §2, §3

Data set [5] can be described thus: GLYAT4621 sandwich ELISA, leaf tissue at V5 stage (pg/μg total extractable protein). More on the design: species or system Zea mays. The note with it: DP-098140-6 maize leaf tissue, V5 growth stage, greenhouse; 20 plants. The method, then: Expression of the GLYAT4621 and Zm-HRA proteins has been evaluated on the leaf tissue collected at the V5 stage of growth from plants cultivated in greenhouses. For each sample, four fresh leaf punches were collected and ground in sample extraction buffer using a GenoGrinder (Spex Certiprep). Total Extractable Protein (TEP) was determined using the Bio-Rad Protein assay, which is based on the Bradford dye-binding procedure. Sample extracts were diluted in sample extraction buffer for ELISA analysis.
The GLYAT4621 and ZM-HRA ELISA's utilize a “sandwich” format for the quantification of the specific target protein in plant tissue extracts. […] The reaction is stopped with Sulfuric acid and the optical density of each well is determined using a Molecular Devices plate reader with a wavelength setting of 450 nm-650 nm. […] The mean concentration from the duplicate wells is expressed as pg target protein/μg of total extractable protein (TEP). The sample lower limit of quantification (LLOQ) was 10 pg GLYAT4621 protein/μg TEP and the upper detection limit was 2000 pg GLYAT4621 protein/μg TEP. The sample lower limit of quantification was 20 pg ZM-HRA protein/μg TEP and the upper detection limit was 5000 pg ZM-HRA protein/μg TEP.
(In general: In an ELISA, binding on a coated surface is turned into a signal by an enzyme label.)

Like-named read-outs stand apart in the source and are kept apart here.

In the case of `O=C(O)CNCP(=O)(O)O` [Glyphosate, glyphosate], the “Plant height, Least Square Means” value in the data set on DP-098140-6 maize [1] (Generation 1, 14 days following treatment) worked out at 103 cm; in the data set on DP-098140-6 maize [1] (Generation 1, 21 days following treatment), 120 cm; with DP-098140-6 maize [1] (Generation 2, 14 days following treatment), 101 cm; in the data set on DP-098140-6 maize [1] (Generation 2, 21 days following treatment) it was 115 cm; in data set [2] (Generation 1, 14 days following treatment, 0 cm = visible plant that has died due to herbicide treatment) it was 0.00 cm; in data set [2] (Generation 1, 21 days following treatment, 0 cm = visible plant that has died due to herbicide treatment) it was 0.00 cm. The “Plant height, Least Square Means” value in data set [2] (Generation 2, 14 days following treatment, 0 cm = plant died due to herbicide) is listed as 0.00 cm; in data set [2] (Generation 2, 21 days following treatment, 0 cm = plant died due to herbicide) it was 0.00 cm. For the same molecule, the “Average Herbicide Injury Rating” value is 0 with DP-098140-6 maize [3] (Generation 1, 14 days post-treatment, 0 = no visible injury, 100 = complete plant death); 0 in the data set with DP-098140-6 maize [3] (Generation 1, 21 days post-treatment, 0-100 scale); 0 in the data set with DP-098140-6 maize [3] (Generation 2, 14 days post-treatment, 0-100 scale); 0 in the data set on DP-098140-6 maize [3] (Generation 2, 21 days post-treatment, 0-100 scale); 100 in data set [4] (Generation 1, 14 days post-treatment); 100 in data set [4] (Generation 1, 21 days post-treatment). The “Average Herbicide Injury Rating” value in data set [4] (Generation 2, 14 days post-treatment) stood at 100; in data set [4] (Generation 2, 21 days post-treatment) it was 100. The molecule also registered an injury in data set [4] (sprayed control maize, both generations) of 100%.

B1: GLYAT4621: glyphosate acetyltransferase protein encoded by the glyat4621 gene, expressed in DP-098140-6 maize (protein)
chain: MAIEVKPINAEDTYDLRHRVLRPNQPIEACMFESDLTRSAFHLGGFYGGKLISVASFHQAEHSELQGKKQYQLRGVATLEGYREQKAGSSLVKHAEEILRKRGADMIWCNARTSASGYYRKLGFSEQGEVFDTPPVGPHILMYKR
modifications: GAT4621 probe
notes: glyphosate acetyltransferase protein encoded by the glyat4621 gene, expressed in DP-098140-6 maize
B1: the “Expression level of GLYAT4621 protein, Mean” value in data set [5] is listed as 571.7 pg/μg TEP.
